# Measured values reported in patent US9808419B2, “Medicinal treatment of dermal infectious disorders with norketotifen” (priority 2012, dated 2017).
# Read-outs that look alike come from different tables or passages of the source. Marks after values point to notes of the source that are not given here.
# Columns and labels:
# histamine wheal response = experiment: Histamine-induced wheal (Evans blue) in rats, oral pretreatment; format: in vivo; conditions: rat; for Saline wheal area: histamine vehicle injection
# Protocol: Male rats (150-200 g) were fasted overnight and twelve hours after dorsal depilation, the animals were orally pretreated with the test compound(s). Four dorsal test areas were marked with permanent ink, carefully avoiding the area closest to the spine. […] Two intradermal injections of the vehicle for the histamine solution were also performed. […] Twenty minutes were allowed for the wheal response to fully develop, whereupon the animals were euthanized and the dorsal skin with the intradermal wheals were deflected. The blue spotted areas were measured in square millimeters and the duplicate wheal areas were averaged. […] The inhibition was calculated in percent difference from said baseline values.
# [1] = system: human leukocytes (buffy coat); experiment: Inhibition of A23187-stimulated histamine release from human leukocytes; format: cell-based
# Protocol: In these studies, histamine was the marker compound for inflammatory mediators that are released from mast cells and other pro-inflammatory cells in patients with atopic inflammatory diseases. The inhibition of stimulated histamine release from human leukocytes (buffy coat) by test articles was studied. Leukocytes were obtained from healthy volunteers and histamine release was induced by incubation (20 min/37° C.) with the calcium ionophore A23187 (5 μM) in the presence or absence of a test article. Histamine was analyzed by enzyme-immune assays, using commercially available kits and a microplate reader (MRX, Dynatech). The test articles were evaluated, in duplicate, at five concentrations.
# [2] = system: histamine-induced pruritus; experiment: Histamine-induced pruritus in mice, oral administration; format: in vivo
# Protocol: Antipruritic effects were tested in vivo in CD-1 female mice aged 10-12 weeks. The hair was clipped over the rostral part of the back at the interscapular level of the mice one day before dosing. Before testing, the mice were placed in individual clear plastic cages for at least one hour for acclimation. After fasting for 1.5 hours, the animals were dosed orally with the test article, dissolved in a vehicle consisting of 1% methylcellulose/water, 10 mL/kg body-weight. Sixty minutes after oral dosing, an intradermal injection of histamine (300 nmol in 20 μl phosphate buffered saline (PBS), pH 7.4) was administered into the clipped area. Immediately after the histamine injection, the bouts of scratches were counted for 40 minutes. Scratching induced by the histamine vehicle PBS served as control.
# Norketotifen was tested in escalating doses. In addition, a supramaximal dose of 100 mg/kg of norketotifen was tested. The reference compounds JNJ7777120, desloratadine and oclacitinib were dosed orally at 20 mg/kg. The vehicle for the reference compound JNJ7777120 was 20% hydroxypropyl-β-cyclodextrin in water. […]. The numbers of pruritic bouts for Norketotifen, DES and OCLA are expressed in percent of the same Vehicle (100% corresponds to 92 pruritic bouts). […] Scratches induced by the histamine-free vehicle PBS (not shown in Table 5) served as control (6±3 bouts of scratching; N=8)
# This test used histamine to induce pruritus. […] The histamine inhibitors are “inverse agonists” at both receptor types.
# mice = conditions: for Sedated animals: mice, 60 min before physostigmine
# Protocol: Mice administered a sedating drug prior to the physostigmine injection are protected from the stress and survive. In the present study, test compounds were given orally 60 minutes prior to physostigmine injection. The number of surviving (sedated) mice was counted 30 minutes after injection of the physostigmine dose.
# [3] = Acute toxicity in rats, Up-and-Down Procedure; conditions: both sexes, Sprague-Dawley, in vivo, rat, hydrogen fumarate salts, read-out: Acute toxicity (estimated LD50)
# Protocol: Acute toxicological studies were performed in rats (Sprague-Dawley; M and F; 200-250 grams). The animal-sparing Up-and-Down Procedure, recommended by FDA and OECD, was used. Both oral and intravenous toxicity tests were performed.
# Both compounds were administered as hydrogen fumarate salts.
# [4] = system: croton oil inflammatory response; experiment: Modified croton oil ear inflammation in mice, topical cream; format: in vivo; conditions: cream containing 1.0 percent (w/w)
# Protocol: In order to investigate the effects of topical administration of the test compounds in dermal inflammation, a modified croton oil model was used. […] The cream was then removed and a solution of 1% croton oil in 20 μl acetone was applied to both ears. […] Cream was wiped from the ears and ears were removed and weighed. […] All results represent mean ear weights (±S.E.M.) from 8 ears.
# [5] = system: histamine-induced pruritus; experiment: Histamine-induced pruritus in mice, topical cream; format: in vivo; conditions: single topical application of 1.0 percent cream
# Protocol: Antipruritic effects were tested in vivo in CD-1 female mice aged 10-12 weeks, according to methods known in the art. The hair was clipped over the rostral part of the back at the interscapular level of the mice one day before dosing. Before testing, the mice were placed in individual clear plastic cages for at least one hour for acclimation. […] Lanolin was weighed and liquified by submerging the vessel containing lanolin in hot water. While the lanolin was liquid, it was rapidly nixed (by vortexing) with the 2.5% norketotifen solution in ethanol, resulting in a 1.0 percent solution. […] A cream containing 60% lanolin/40% ethanol served as control.
# Candida albicans = experiment: Antimicrobial test; format: cell-based
# Text: (§1) Several studies have been performed to evaluate possible antimicrobial activities of norketotifen. Shown here are the results from a standard microbiological test, where the results are expressed as MIC (Minimal Inhibitory Concentration) of the test article against selected exemplary dermal bacteria (such as for example Staphylococcus aureus) and dermal fungi (such as for example Malassezia sp) that are commonly found in human with dermal diseases. […] All the MIC-tests shown in Table 10 were performed in duplicates, using 10 concentrations of the test articles. […] The test culture tubes/plates were incubated in temperatures and durations appropriate for each microorganism (S. aureus: 36° C. and 24 hours; M. globosa: 30° C. and 24 hours).
# Malassezia pachydermatis = experiment: Antimicrobial test; format: cell-based
# Text: as §1
# Helicobacter pylori = experiment: Antimicrobial test; format: cell-based
# [6] = Solubility in non-aqueous topical formulation solvents; format: physicochemical
# Protocol: The hydrophobic ointment was prepared by dissolving norketotifen in propylene glycol. […] Next, glyceryl stearate, cetyl alcohol, and white petrolatum were added to a suitable container and heated to 65-70° C. This heating step melts the surfactants and the petrolatum. Next, norketotifen solution was slowly added and the composition mixed until the solvent was dispersed. Finally, the composition was cooled with mixing to allow the ointment to thicken. If needed, acidity can be adjusted by adding an acid solution or a base solution to obtain the preferred acidity. If needed, viscosity can be adjusted with a viscosity-modifying agent to obtain the preferred viscosity.
# [7] = Formation of norketotifen by hepatic demethylation of ketotifen; conditions: human patients, after an oral dose of one milligram ketotifen; calculated
# Malassezia globosa = experiment: Antimicrobial MIC test; format: cell-based; conditions: 30° C. and 24 hours
# Text: as §1
# Staphylococcus aureus = experiment: Antimicrobial MIC test; format: cell-based; conditions: MRSA or non-resistant S. aureus; 36° C. and 24 hours
# Text: as §1
# [8] = oral 20 mg/kg, vehicle 1% methylcellulose/water
smiles,measurement,setting,value
O=C1Cc2ccccc2C(=C2CCNCC2)c2ccsc21 (racemic) [Norketotifen],Saline wheal area,histamine wheal response; oral 1.0 mg/kg,22 ± 1 mm^2
same,Histamine wheal area,"histamine wheal response; oral 10 mg/kg, 60 min before intradermal histamine",39 ± 2 mm^2
same,Saline wheal area,histamine wheal response; oral 10 mg/kg,22 ± 1 mm^2
same,Saline wheal area,histamine wheal response; oral 50 mg/kg,12 ± 1 mm^2
same,Potency as inhibitor of histamine release relative to ketotifen,[1],approximately 10 times
same,Bouts/40 min Mean ± SEM,[2]; oral 1 mg/kg,84.7 ± 11.6
same,Bouts as % of Vehicle Controls,"[2]; oral 1 mg/kg, 100% = 92 bouts",92%
same,Bouts/40 min Mean ± SEM,[2]; oral 3 mg/kg,34.1 ± 9.6
same,Bouts as % of Vehicle Controls,"[2]; oral 3 mg/kg, 100% = 92 bouts",37** %
same,Bouts/40 min Mean ± SEM,[2]; oral 10 mg/kg,17.8 ± 3.1
same,Bouts as % of Vehicle Controls,"[2]; oral 10 mg/kg, 100% = 92 bouts",19** %
same,Bouts/40 min Mean ± SEM,[2]; oral 100 mg/kg,8.3 ± 2.8
same,Bouts as % of Vehicle Controls,"[2]; oral 100 mg/kg, 100% = 92 bouts",9*** %
same,Inhibition of histamine-induced pruritus,[2]; oral supramaximal dose 100 mg/kg,complete inhibition
same,Sedated animals,mice; oral 83 mg/kg,3/10
same,Sedated animals,mice; oral 100 mg/kg,3/10
same,Sedated animals,mice; oral 150 mg/kg,3/10
same,Sedated animals,mice; oral 180 mg/kg,6/10
same,Sedative activity in mice,"mice; mouse, in vivo",expressed sedative activity
same,LD50,[3]; intravenous,10 to 15 mg/kg
same,LD50,[3]; oral,1500 to 2000 mg/kg
same,Inhibition of croton oil inflammation,[4],completely inhibited
same,Reduction of histamine-induced pruritus versus Vehicle Control,[5],58%
same,Antimicrobial activity,Candida albicans,potent antimicrobial activities
same,Antimicrobial activity,Malassezia pachydermatis,potent antimicrobial activities
same,Antimicrobial activity,Helicobacter pylori,potent antimicrobial activities
same,Solubility,"[6]; formulation G1009, mixture of two polyethylene glycols",about 1.0%
same,Solubility,[6]; in propylene glycol,about 1.0%
same,Norketotifen formed in the liver,[7],up to 0.5 mg
"Clc1ccc2c(c1)CCc1cccnc1C2=C1CCNCC1 [DESLORATADINE, reference compound]",Bouts as % of Vehicle Controls,"[2]; oral 20 mg/kg, 100% = 92 bouts",122%
same,Bouts/40 min Mean ± SEM,[2]; [8],112.0 ± 14.5
same,Sedated animals,mice; oral 150 mg/kg,0/10
CN(C)CCOC(c1ccccc1)c1ccccc1 [DIPHENHYDRAMINE],Sedated animals,mice; oral 50 mg/kg,5/10
same,Sedated animals,mice; oral 100 mg/kg,8/10
OCCOCCN1CCN(C(c2ccccc2)c2ccc(Cl)cc2)CC1 (stereo not drawn) [HYDROXYZINE],Sedated animals,mice; oral 100 mg/kg,9/10
"CN1CCN(C(=O)c2cc3cc(Cl)ccc3[nH]2)CC1 [J&J7777120, reference compound]",Bouts/40 min Mean ± SEM,"[2]; oral 20 mg/kg, vehicle 20% hydroxypropyl-β-cyclodextrin",63.6 ± 11.7
same,Bouts as % of Vehicle Controls,"[2]; oral 20 mg/kg, versus vehicle for JNJ7777120 (112 bouts)",57* %
"CN1CCC(=C2c3ccccc3CC(=O)c3sccc32)CC1 [Ketotifen, 4-(1-methyl-4-piperidyline)-4H-benzo(4,5)-cyclohepta-(1,2-b) thiophene-10-one]",Sedated animals,mice; oral 25 mg/kg,5/10
same,Sedated animals,mice; oral 50 mg/kg,8/10
same,Sedated animals,mice; oral 100 mg/kg,10/10
same,LD50,[3]; intravenous,5 to 10 mg/kg
same,LD50,[3]; oral,< 300 mg/kg
CCOC(=O)N1CCC(=C2c3ccc(Cl)cc3CCc3cccnc32)CC1 [LORATADINE],Sedated animals,mice; oral 150 mg/kg,1/10
"CNS(=O)(=O)C[C@H]1CC[C@H](N(C)c2ncnc3[nH]ccc23)CC1 [Oclacitinib, reference compound]",Bouts as % of Vehicle Controls,"[2]; oral 20 mg/kg, 100% = 92 bouts",55* %
same,Bouts/40 min Mean ± SEM,[2]; [8],50.9 ± 18.7
COc1ccc(CN(CCN(C)C)c2ccccn2)cc1 [PYRILAMINE],Sedated animals,mice; oral 100 mg/kg,8/10
O=C1Cc2ccccc2C(=C2CCNCC2)c2ccsc21 [R-NORKETOTIFEN],Sedated animals,"mice; oral 100 mg/kg, 100 mg/kg",3/10
same,Sedated animals,"mice; oral 150 mg/kg, 150 mg/kg",3/10
O=C(O)/C=C/C(=O)O.O=C1Cc2ccccc2C(=C2CCNCC2)c2ccsc21 [R-norketotifen HF],M. globosa MIC,Malassezia globosa,0.5 mg/mL
same,S. aureus MIC,Staphylococcus aureus,1.0 mg/mL
O=C(O)/C=C/C(=O)O.O=C1Cc2ccccc2C(=C2CCNCC2)c2ccsc21 [RS-norketotifen HF],M. globosa MIC,Malassezia globosa,0.25 mg/mL
same,S. aureus MIC,Staphylococcus aureus,0.5 mg/mL
O=C1Cc2ccccc2C(=C2CCNCC2)c2ccsc21 [S-NORKETOTIFEN],Sedated animals,"mice; oral 100 mg/kg, 100 mg/kg",0/10
same,Sedated animals,"mice; oral 150 mg/kg, 150 mg/kg",0/10
O=C(O)/C=C/C(=O)O.O=C1Cc2ccccc2C(=C2CCNCC2)c2ccsc21 [S-norketotifen HF],M. globosa MIC,Malassezia globosa,0.25 mg/mL
same,S. aureus MIC,Staphylococcus aureus,0.5 mg/mL
CC(C)(C)c1ccc(C(O)CCCN2CCC(C(O)(c3ccccc3)c3ccccc3)CC2)cc1 (stereo not drawn) [TERFENADINE],Sedated animals,mice; oral 150 mg/kg,0/10
